Measured values published in patent EP4467141A1, “PYRAZOLO-QUINOLINES AS SELECTIVE INHIBITORS OF GENOTOXIC STRESS-INDUCED IKK/NF- KB PATHWAYS FOR CANCER THERAPY” (Max-Delbrück-Centrum für Molekulare Medizin in der …, priority 2023, dated 2024).
Where two headings read alike, the source gives them in different places.

Experiments:
Experiment in all cases: Kinase panel study
Format in all cases: biochemical
[1] = biological target: T1, AKT2 (PKB beta) (Homo sapiens, UniProt P31751)
T1 construct: purchased Thermo Fisher Scientific
T1 sequence (P31751 whole entry): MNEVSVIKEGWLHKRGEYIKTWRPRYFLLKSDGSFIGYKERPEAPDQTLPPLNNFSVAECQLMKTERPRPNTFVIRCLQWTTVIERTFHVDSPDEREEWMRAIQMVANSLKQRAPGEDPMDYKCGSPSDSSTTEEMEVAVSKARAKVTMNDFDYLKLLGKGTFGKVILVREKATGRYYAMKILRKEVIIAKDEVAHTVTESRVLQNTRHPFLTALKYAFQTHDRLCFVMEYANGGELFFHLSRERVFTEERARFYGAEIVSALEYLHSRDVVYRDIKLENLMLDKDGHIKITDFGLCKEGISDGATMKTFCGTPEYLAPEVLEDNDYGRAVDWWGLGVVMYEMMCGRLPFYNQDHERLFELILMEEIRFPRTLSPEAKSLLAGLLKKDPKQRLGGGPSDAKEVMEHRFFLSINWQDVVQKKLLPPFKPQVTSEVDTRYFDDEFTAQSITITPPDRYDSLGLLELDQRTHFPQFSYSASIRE
Procedure: (§1) The Kinase panel study was entirely provided by Thermo Fisher Scientific using the two lead compounds MW01 and MW05 as well as their derivatives (MW01-E06, MW01-E10, MW01-E14, MW01-E18, MW05-E2, MW05-E3, MW05-E9 and MW05-E10. The experiment was performed using the ZLyte or Adapta protocol according to manufacturer standard operating procedures.
(§2) Based on their similar effects in our screen and molecular analysis, MW01 and MW05 were used in comparative target deconvolution studies seeking common targets despite their distinct structures. To eliminate previously identified kinases regulating NF-κB activity, such as IKK, as possible targets of MW01 and MW05, an in vitro kinase inhibition assay was performed. […] We next investigated if any of the shared kinase targets of MW01 and MW05 play a role in genotoxic stress-induced NF-κB activity and established several criteria to narrow down pathway-relevant targets. Considering the similar NF-κB inhibition phenotypes of both compounds, we hypothesized first that the target should be shared by both lead compounds. Second, based on the CaCo2 recovery values and experimental treatment concentration of 10 µM), the putative target kinase should have a low IC50 of, at most, 2000 nM for both lead compounds in the in vitro kinase panel (Fig. 2A). Based on these criteria alone, we arrived at a relatively short list of potential targets for further analysis, leaving only PIK3CG, PIK3C2G, and CLK2 (Fig. 2B). IC50 values for PIK3C2G by both lead compounds agreed best with these criteria, but RNA expression analysis indicates high tissue specificity as well as lack of expression of this kinase in our U2-OS model cell line, which we then eliminated from further analysis (Uhlén et al., 2015). […] Table 6: Percentage of inhibition of the indicated kinases by MW01 or MW05 at either 10 µM or 1 µM. n.d. = not determined.

[2] = biological target: T2, BLK (Homo sapiens, UniProt P51451)
T2 construct: purchased Thermo Fisher Scientific
T2 sequence (P51451 whole entry): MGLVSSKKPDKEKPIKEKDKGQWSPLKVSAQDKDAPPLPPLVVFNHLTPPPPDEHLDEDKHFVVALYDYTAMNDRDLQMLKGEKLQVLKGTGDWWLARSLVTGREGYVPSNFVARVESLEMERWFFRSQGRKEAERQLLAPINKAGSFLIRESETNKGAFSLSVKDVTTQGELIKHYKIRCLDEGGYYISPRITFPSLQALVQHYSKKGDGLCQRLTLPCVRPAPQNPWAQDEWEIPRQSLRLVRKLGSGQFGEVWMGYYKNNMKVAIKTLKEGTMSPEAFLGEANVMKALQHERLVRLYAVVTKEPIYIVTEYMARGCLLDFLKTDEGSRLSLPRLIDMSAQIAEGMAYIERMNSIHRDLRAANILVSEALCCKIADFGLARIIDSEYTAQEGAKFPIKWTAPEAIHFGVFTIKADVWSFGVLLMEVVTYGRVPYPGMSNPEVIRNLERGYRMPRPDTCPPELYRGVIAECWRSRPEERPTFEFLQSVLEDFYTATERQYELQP
Procedure: as §1, §2

[3] = biological target: T3, IKBKB (IKK beta) (Homo sapiens, UniProt O14920)
T3 construct: purchased Thermo Fisher Scientific
T3 sequence (O14920 1-756): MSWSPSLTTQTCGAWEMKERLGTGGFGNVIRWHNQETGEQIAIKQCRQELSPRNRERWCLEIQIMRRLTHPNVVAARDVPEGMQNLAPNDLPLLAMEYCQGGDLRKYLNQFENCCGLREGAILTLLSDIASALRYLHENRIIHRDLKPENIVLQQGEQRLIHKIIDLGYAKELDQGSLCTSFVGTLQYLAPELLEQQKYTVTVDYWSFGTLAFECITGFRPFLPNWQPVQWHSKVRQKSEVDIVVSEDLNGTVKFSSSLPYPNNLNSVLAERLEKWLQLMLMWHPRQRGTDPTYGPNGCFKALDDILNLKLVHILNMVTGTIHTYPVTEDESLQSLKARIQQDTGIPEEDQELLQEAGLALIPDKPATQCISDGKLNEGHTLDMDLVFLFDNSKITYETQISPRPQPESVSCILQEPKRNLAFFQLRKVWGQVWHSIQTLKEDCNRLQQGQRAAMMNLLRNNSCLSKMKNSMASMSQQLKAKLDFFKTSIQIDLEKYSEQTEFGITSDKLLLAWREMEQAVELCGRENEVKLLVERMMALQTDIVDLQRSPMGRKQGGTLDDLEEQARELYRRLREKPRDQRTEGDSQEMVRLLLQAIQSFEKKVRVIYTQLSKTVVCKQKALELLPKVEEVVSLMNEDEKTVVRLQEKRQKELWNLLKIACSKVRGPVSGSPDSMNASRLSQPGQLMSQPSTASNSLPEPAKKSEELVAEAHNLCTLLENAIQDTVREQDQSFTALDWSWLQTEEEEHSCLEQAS
Procedure: as §1, §2

[4] = biological target: T4, MAP4K2 (GCK) (Homo sapiens, UniProt Q12851)
T4 construct: purchased Thermo Fisher Scientific
T4 sequence (Q12851 1-820): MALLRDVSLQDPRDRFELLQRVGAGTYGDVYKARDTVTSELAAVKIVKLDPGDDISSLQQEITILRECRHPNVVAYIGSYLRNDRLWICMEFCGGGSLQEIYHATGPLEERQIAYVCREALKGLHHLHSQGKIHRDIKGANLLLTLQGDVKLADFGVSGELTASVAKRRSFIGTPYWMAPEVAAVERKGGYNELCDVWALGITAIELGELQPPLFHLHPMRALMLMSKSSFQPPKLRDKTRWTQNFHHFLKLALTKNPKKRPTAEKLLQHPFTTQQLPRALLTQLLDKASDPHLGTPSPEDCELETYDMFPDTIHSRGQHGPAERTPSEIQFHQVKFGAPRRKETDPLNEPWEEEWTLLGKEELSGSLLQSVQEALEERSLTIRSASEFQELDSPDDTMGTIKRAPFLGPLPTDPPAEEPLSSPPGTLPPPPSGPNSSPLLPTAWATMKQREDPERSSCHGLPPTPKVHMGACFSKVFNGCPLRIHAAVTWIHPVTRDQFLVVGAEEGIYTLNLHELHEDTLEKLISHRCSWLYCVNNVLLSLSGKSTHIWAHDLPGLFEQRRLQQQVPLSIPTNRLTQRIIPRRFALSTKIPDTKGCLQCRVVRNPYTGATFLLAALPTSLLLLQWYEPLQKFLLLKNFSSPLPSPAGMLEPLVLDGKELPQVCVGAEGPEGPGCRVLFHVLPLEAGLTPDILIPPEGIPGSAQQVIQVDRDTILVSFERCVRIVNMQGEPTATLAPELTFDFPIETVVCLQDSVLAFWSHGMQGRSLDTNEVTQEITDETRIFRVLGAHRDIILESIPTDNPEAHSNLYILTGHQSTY
Procedure: as §1, §2

[5] = biological target: T5, MINK1 (Homo sapiens, UniProt Q8N4C8)
T5 construct: purchased Thermo Fisher Scientific
T5 sequence (Q8N4C8 whole entry): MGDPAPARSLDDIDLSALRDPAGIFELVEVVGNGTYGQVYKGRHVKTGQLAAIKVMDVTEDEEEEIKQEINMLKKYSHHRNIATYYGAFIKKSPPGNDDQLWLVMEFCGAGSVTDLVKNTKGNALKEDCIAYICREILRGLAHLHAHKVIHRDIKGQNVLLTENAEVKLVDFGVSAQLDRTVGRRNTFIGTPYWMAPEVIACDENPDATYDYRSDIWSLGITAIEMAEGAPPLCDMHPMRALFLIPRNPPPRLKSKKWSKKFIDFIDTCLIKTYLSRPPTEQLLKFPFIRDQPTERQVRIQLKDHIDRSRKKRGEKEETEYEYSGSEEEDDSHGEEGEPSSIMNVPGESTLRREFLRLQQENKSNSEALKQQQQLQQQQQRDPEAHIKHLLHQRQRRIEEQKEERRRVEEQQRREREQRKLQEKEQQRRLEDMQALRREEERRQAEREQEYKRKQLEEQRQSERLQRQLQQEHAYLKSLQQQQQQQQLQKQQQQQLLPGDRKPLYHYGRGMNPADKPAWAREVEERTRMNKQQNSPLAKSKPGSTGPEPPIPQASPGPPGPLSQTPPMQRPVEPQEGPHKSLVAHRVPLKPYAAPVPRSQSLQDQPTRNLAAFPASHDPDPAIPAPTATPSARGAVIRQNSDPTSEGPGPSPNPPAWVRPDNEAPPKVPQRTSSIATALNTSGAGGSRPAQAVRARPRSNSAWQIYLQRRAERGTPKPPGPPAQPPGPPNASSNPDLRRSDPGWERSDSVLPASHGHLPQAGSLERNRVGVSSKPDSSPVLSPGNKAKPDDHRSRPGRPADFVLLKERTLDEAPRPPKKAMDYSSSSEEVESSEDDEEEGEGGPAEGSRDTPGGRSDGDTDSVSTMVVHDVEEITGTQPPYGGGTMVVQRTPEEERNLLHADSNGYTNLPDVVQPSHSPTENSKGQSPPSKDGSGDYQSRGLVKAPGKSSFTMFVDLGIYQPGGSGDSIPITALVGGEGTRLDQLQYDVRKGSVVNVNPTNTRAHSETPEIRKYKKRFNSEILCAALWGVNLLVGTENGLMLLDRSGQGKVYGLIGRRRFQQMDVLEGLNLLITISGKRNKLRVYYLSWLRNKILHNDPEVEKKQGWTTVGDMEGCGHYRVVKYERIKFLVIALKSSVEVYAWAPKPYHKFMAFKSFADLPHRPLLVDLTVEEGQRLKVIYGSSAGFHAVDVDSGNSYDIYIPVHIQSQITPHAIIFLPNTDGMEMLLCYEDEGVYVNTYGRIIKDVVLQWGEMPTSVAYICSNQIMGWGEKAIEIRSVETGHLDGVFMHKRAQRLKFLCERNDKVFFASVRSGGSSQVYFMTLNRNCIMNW
Procedure: as §1, §2

[6] = biological target: T6, PI4K2A (PI4K2 alpha) (Homo sapiens, UniProt Q9BTU6)
T6 construct: purchased Thermo Fisher Scientific
T6 sequence (Q9BTU6 whole entry): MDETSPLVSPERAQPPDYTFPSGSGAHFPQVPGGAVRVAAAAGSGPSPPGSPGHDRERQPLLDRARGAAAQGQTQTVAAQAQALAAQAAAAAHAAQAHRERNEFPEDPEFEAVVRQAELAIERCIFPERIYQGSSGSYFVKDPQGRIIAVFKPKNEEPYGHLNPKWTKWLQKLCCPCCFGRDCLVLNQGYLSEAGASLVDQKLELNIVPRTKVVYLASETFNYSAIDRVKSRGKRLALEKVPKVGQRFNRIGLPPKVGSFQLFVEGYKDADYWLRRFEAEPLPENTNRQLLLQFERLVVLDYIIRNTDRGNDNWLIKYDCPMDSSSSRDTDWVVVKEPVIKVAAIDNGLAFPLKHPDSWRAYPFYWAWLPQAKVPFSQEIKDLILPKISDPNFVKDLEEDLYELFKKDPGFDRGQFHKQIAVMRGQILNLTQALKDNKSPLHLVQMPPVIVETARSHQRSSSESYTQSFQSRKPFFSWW
Procedure: as §1, §2

[7] = biological target: T7, PIK3C2A (PI3K-C2 alpha) (Homo sapiens, UniProt O00443)
T7 construct: purchased Thermo Fisher Scientific
Procedure: as §1, §2

[8] = biological target: T8, PIK3CB/PIK3R2 (p11 0 beta/p85 beta) (Homo sapiens, UniProt P42338)
T8 construct: purchased Thermo Fisher Scientific
Procedure: as §1, §2

[9] = biological target: T9, PIK3CG (p11 0 gamma) (Homo sapiens, UniProt P48736)
T9 construct: purchased Thermo Fisher Scientific
T9 sequence (P48736 whole entry): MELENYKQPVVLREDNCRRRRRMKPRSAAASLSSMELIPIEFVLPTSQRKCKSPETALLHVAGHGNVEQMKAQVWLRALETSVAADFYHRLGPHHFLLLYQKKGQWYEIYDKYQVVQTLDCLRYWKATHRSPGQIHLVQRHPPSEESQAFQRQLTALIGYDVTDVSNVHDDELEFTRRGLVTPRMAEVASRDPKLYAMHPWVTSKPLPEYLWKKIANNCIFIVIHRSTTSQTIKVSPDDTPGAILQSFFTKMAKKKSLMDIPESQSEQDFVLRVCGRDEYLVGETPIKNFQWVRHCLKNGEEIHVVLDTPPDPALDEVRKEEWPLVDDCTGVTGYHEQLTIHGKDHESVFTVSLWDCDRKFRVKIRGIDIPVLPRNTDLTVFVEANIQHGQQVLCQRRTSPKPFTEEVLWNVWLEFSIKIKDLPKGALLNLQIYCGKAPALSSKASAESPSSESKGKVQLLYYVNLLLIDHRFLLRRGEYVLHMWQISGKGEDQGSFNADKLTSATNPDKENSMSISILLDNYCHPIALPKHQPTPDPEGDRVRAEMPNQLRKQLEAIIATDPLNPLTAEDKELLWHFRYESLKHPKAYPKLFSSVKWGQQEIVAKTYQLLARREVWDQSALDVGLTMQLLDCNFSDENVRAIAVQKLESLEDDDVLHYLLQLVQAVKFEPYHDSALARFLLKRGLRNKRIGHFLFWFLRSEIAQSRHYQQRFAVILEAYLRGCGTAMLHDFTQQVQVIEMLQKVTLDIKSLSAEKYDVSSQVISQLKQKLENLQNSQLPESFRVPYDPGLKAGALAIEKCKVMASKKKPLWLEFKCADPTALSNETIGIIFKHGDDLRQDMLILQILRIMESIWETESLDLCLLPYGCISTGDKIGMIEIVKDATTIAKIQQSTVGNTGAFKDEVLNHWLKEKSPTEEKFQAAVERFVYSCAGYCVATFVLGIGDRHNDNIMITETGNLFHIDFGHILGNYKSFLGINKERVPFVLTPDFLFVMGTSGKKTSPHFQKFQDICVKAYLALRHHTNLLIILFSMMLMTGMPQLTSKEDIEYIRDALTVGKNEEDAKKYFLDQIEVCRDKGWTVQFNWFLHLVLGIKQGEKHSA
Procedure: as §1, §2

[10] = biological target: T10, PIP5K1C (Homo sapiens, UniProt O60331)
T10 construct: purchased Thermo Fisher Scientific
T10 sequence (O60331 whole entry): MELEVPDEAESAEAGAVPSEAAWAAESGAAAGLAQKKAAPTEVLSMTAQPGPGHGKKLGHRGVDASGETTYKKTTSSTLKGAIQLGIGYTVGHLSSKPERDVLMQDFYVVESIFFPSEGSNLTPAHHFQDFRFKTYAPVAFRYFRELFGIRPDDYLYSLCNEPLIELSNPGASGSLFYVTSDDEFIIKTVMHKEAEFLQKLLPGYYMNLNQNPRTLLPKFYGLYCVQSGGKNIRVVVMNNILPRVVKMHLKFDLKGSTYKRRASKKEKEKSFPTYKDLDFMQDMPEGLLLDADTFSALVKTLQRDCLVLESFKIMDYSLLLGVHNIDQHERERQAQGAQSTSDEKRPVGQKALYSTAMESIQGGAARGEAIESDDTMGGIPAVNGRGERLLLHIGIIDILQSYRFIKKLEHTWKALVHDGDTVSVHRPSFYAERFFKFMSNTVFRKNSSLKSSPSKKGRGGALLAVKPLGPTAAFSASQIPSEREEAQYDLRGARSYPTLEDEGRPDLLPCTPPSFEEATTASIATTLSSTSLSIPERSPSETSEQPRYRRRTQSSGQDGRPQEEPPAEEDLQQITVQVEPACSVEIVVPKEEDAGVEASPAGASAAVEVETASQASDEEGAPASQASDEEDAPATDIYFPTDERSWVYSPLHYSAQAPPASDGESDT
Procedure: as §1, §2

[11] = 1000nM, read-out: Percentage of inhibition
[12] = 10000nM, read-out: Percentage of inhibition
[13] = AKT2 (PKB beta), compound at 10µM, read-out: % of Inhibition
[14] = BLK, compound at 10µM, read-out: % of Inhibition
[15] = IKBKB (IKK beta), compound at 10µM, read-out: % of Inhibition
[16] = MAP4K2 (GCK), compound at 10µM, read-out: % of Inhibition
[17] = MINK1, compound at 10µM, read-out: % of Inhibition
[18] = PI4K2A (PI4K2 alpha), compound at 10µM, read-out: % of Inhibition
[19] = PIK3C2A (PI3K-C2 alpha), compound at 10µM, read-out: % of Inhibition
[20] = PIK3CB/PIK3R2, compound at 10µM, read-out: % of Inhibition
[21] = PIK3CG, compound at 10µM, read-out: % of Inhibition
[22] = PIP5K1C, compound at 10µM, read-out: % of Inhibition

COc1ccc2c(c1OC)c(=O)n1c3ccc(O)cc3c3ccnc2c31 [MW01, 5-Hydroxy-10,11-dimethoxy-9H-benzo[c]indolo[3,2,1-ij][1,5]naphthyridin-9-one]
inhibition at 1 µM [1, 11]: 1%
inhibition at 10 µM [1, 12]: 9%
inhibition at 1 µM [2, 11]: 8%
inhibition at 10 µM [2, 12]: 26%
inhibition at 1 µM [3, 11]: 4%
inhibition at 10 µM [3, 12]: 12%
inhibition at 1 µM [4, 11]: 50%
inhibition at 10 µM [4, 12]: 77%
inhibition at 1 µM [5, 11]: 60%
inhibition at 10 µM [5, 12]: 73%
inhibition at 1 µM [6, 11]: 7%
inhibition at 10 µM [6, 12]: 25%
inhibition at 1 µM [7, 11]: 26%
inhibition at 10 µM [7, 12]: 43%
inhibition at 1 µM [8, 11]: 24%
inhibition at 10 µM [8, 12]: 66%
inhibition at 1 µM [9, 11]: 81%
inhibition at 10 µM [9, 12]: 88%
IC50 ([9]; in vitro kinase panel, criterion of at most 2000 nM): ≤ 2000 nM
inhibition at 1 µM [10, 11]: 54%
inhibition at 10 µM [10, 12]: 69%

COc1ccc2c(c1)c1ccnc3c4nc(OC)ccc4c(=O)n2c13 [MW01-E6, 5,15-dimethoxy-1,11,14-triazapentacyclo[10.7.1,0^2,7.0^8,^20.0^13,^18]icosa-2(7),3,5,8(20),9,11,13(18),14,16-nonaen-19-one]
inhibition at 10 µM [1, 13]: 4%
inhibition at 10 µM [2, 14]: 23%
inhibition at 10 µM [3, 15]: 10%
inhibition at 10 µM [4, 16]: 70%
inhibition at 10 µM [5, 17]: 57%
inhibition at 10 µM [6, 18]: 22%
inhibition at 10 µM [7, 19]: 26%
inhibition at 10 µM [8, 20]: 12%
inhibition at 10 µM [9, 21]: -1%
inhibition at 10 µM [10, 22]: 14%

O=c1c2cc(O)ccc2c2nccc3c4cc(O)ccc4n1c32 [MW01-E10, 5,16-dihydroxy-1,11-diazapentacyclo[10.7.1.0^2,^7.0^8,^20.0^13,^18]icosa-2(7),3,5,8(20),9,11,13(18),14,16-nonaen-19-one]
inhibition at 10 µM [1, 13]: 18%
inhibition at 10 µM [2, 14]: 42%
inhibition at 10 µM [3, 15]: 31%
inhibition at 10 µM [4, 16]: 98%
inhibition at 10 µM [5, 17]: 92%
inhibition at 10 µM [6, 18]: 13%
inhibition at 10 µM [7, 19]: 31%
inhibition at 10 µM [8, 20]: 35%
inhibition at 10 µM [9, 21]: 93%
inhibition at 10 µM [10, 22]: 33%
